Consider two molecules from US20060178387A1, “Combined treatment with capecitabine and an epidermal growth factor receptor kinase inhibitor” (priority 2005, published 2006).

The subject of data set [1] is KPL-4 (human inflammatory breast cancer) cells. The experiment in a line: Tumor-growth inhibition in vivo, KPL-4 orthotopic xenograft in BALB/c nu/nu mice.
From the text: (§1) Suspensions of LoVo (5×10^6 cells/mouse), HT-29 (5 x 10^6 cells/mouse) and A431 (8×10^6 cells/mouse) cells were inoculated s.c. into the right flank of the mice. A piece of MAXF401 was transplanted s.c. into the right flank of female mice. A suspension of KPL-4 cells (1×10^7 cells/mouse) was orthotopically transplanted into the second mammary fat pad of female mice. Several weeks after tumor inoculation, mice were selected and randomized into control and treatment groups. Experiments were started when tumor volumes reached approximately 0.1-0.3 cm^3. […] The tumor volumes were estimated using the equation V=ab^2/2, where a and b are tumor length and width, respectively. Gastrointestinal (GI) toxicity was estimated by observing the feces and by detecting fecal occult blood using a test kit (Shionogi Pharma Co., Osaka, Japan). Peripheral blood leukocyte counts were performed to evaluate bone marrow toxicity.
In data set [2] the test system is LoVo (human colon cancer) cells. Description: Tumor-growth inhibition in vivo, LoVo xenograft in BALB/c nu/nu mice. To be noted: for tumor-growth inhibition: LoVo; for tumor inhibition rate: day 15, after 14 days' treatment.
From the text: as §1
For data set [3], the system named is A-431 (human vulval epidermal cancer) cells. Description: Tumor-growth inhibition in vivo, A-431 xenograft in BALB/c nu/nu mice. To be noted: erlotinib 100 mg/kg/day (80% of MTD) orally once daily for 14 days.
From the text: as §1
In data set [4] the test system is MAXF401 (human breast cancer) cells. The experiment in a line: Tumor-growth inhibition in vivo, MAXF401 xenograft in BALB/c nu/nu mice. Conditions: erlotinib 100 mg/kg/day orally once daily for two weeks, day 15.
From the text: as §1
Data set [5] in a line: Tolerability (body weight, deaths, MTD) in tumor-bearing mice. The class given is in vivo, BALB/c nu/nu mice. To be noted: for lethality: erlotinib 250 mg/kg/day; for toxic deaths: erlotinib 50-125 mg/kg/day for 2 weeks. From the text: Male and female, 4-6-weeks old BALB/c nu/nu mice were obtained from Nippon Clea (Tokyo, Japan). All animals were allowed to acclimatize and recover from shipping-related stress for 1 week prior to the study. The health of the mice was monitored daily by observation.

Data set [6] deals with HT-29 (human colon cancer) cells. Description: Tumor-growth inhibition in vivo, HT-29 xenograft in BALB/c nu/nu mice. Conditions: erlotinib 100 mg/kg/day orally once daily for two weeks, day 15.
From the text: as §1
Setting [7] is: erlotinib 100 mg/kg/day (80% of MTD) orally once daily for 14 days, day 15.
Where [8] appears, read: erlotinib 100 mg/kg/day (80% of MTD) orally once daily for 14 days, day 15, listed as erlotinib.

Structures are written as SMILES.

What is called MTD is the largest dose that counted as tolerated.

Consider `CCCCCOC(=O)Nc1nc(=O)n([C@@H]2O[C@H](C)[C@@H](O)[C@H]2O)cc1F` [Capecitabine, capecitabine], for which the tumor-growth inhibition in data set [1] (capecitabine 90 mg/kg (67% of MTD for this model) orally once daily for 14 days, day 15) turned out to be 36%; in data set [2] (capecitabine at the MTD, 539 mg/kg), 56%.
In the case of `C#Cc1cccc(Nc2ncnc3cc(OCCOC)c(OCCOC)cc23)c1` [Erlotinib, [6,7-bis(2-methoxyethoxy)-4-quinazolin-4-yl]-(3-ethynylphenyl)amine], the tumor-growth inhibition is 71% in data set [1] (setting [7]); 71% in data set [1] (setting [8]); 85% in data set [3] (day 15); 85% in data set [3] (day 15, listed as erlotinib); 74% in data set [2] (setting [7]); 74% in data set [2] (setting [8]). Further, the tumor-growth inhibition was 20% in data set [4] and 46% in data set [6]. Moreover, in data set [1] (single-agent erlotinib 75 mg/kg (data not shown)), the “inhibition of tumor growth” value was 45%. Besides, in data set [2] (LoVo dose-response study, erlotinib 50 mg/kg orally once daily for 2 weeks), the antitumor activity entry was “did not show significant antitumor activity”. For the same molecule, the tumor inhibition rate in data set [2] (LoVo dose-response study, erlotinib 100 mg/kg orally once daily) is listed as 62%; in data set [2] (LoVo dose-response study, erlotinib 125 mg/kg orally once daily), 85%. Moreover, the MTD at 2 weeks in data set [5] (BALB/c nu/nu, mouse, in vivo, oral, read-out: maximum tolerated dose (MTD)) was 125 mg/kg/day. Moreover, the lethality result in data set [5] (mice bearing A431 tumors (data not shown)) and in data set [5] (mice bearing LoVo tumors (data not shown)) was “lethal” in each case. For the same molecule, the toxic deaths result in data set [5] (mice bearing LoVo tumors) is “no deaths recorded”; in data set [5] (mice bearing LoVo tumors, listed as erlotinib) it was “No toxic deaths were observed”. For the same molecule, in data set [5] (mice bearing LoVo tumors, erlotinib 50-125 mg/kg/day, all groups), the “mean body weight maintained” value is given as at least 80%.
